Values quoted from earlier work in patent US20070232672A1, “Pharmaceutical Composition And Method For Treating Neurodegenerative Disorders” (Myriad Genetics, Incorporated, priority 2004, published 2007).
Where two headings read alike, the source gives them in different places.

Key:
Aβ42 [1] = settings: transgenic mouse model, Koo et al.
Aβ42 [2] = settings: CHO cells, Koo et al.
[3] = 50 mg and 100 mg doses, human subjects, Lotsch et al.
[4] = for efficacy for treating AD: clinical trial (Aisen et al., Reines et al.), rofecoxib at 25 mg daily
[5] = patients having mild cognitive impairment
[6] = Scali et al.

C[C@@H](C(=O)O)c1ccc(-c2ccccc2)c(F)c1 [(R)-2-(2-fluoro-4-biphenylyl)propionic acid]
inhibition of COX activity (COX): negligibly inhibits COX activity | Aβ42 lowering (Aβ42 [1]): lower Aβ42 | Aβ42 lowering (Aβ42 [2]): lower Aβ42 | analgesic effect [3]: produced an analgesic effect

COc1ccc2cc([C@H](C)C(=O)O)ccc2c1 [Naproxen]
efficacy for treating AD [4]: failed to show efficacy

CC12CC3CC(C)(C1)CC(N)(C3)C2 [memantine]
efficacy in treating mild-to-moderate AD ([4]; mild-to-moderate AD): showed efficacy

CS(=O)(=O)c1ccc(C2=C(c3ccccc3)C(=O)OC2)cc1 [rofecoxib]
efficacy for treating AD [4]: failed to show efficacy | prevention of the development of Alzheimer's disease ([5]; large prevention trial): failed to prevent the development of Alzheimer's disease | patients who developed AD ([5]; placebo 4.5%): 6.4% | neuroprotection [6]: provides neuroprotection
